According to patent publication EP0936867B1, “BENZOYLPHENYLUREA INSECTICIDES AND METHODS OF USING CERTAIN BENZOYLPHENYLUREAS TO CONTROL COCKROACHES, ANTS, FLEAS, AND TERMITES” (Dow AgroSciences LLC, priority 1996, dated 1998):

Assays:
Type in all cases: in vivo
[1] = system: German cockroach 2nd instars (Blattella germanica); assay: Continuous, low-dose ingestion exposure (treated cornmeal)
[2] = system: Daphnia; assay: Activity against Daphnia, 48 hr exposure to treated water
Excerpt: 48 hr exposure to treated water

[3] = system: Subterranean Termite (Reticulitermes flavipes); assay: Limited exposure (7 days), mortality determined at 14, 28, 42 and 56 days
Excerpt: (§1) Subterranean Termite (Reticulitermes flavipes)
Limited exposure (7 days) with mortality determined at 14, 28, 42, and 56 […]

[4] = system: German cockroach 2nd instars (Blattella germanica); assay: Limited ingestion exposure (48 hr) to treated cornmeal
Excerpt: German cockroach 2nd instars (Blattella germanica)
Limited ingestion exposure (48 hr) to treated cornmeal Rates: 1, 10, 100, 1000, 10000 ppm

[5] = system: Subterranean Termite (Reticulitermes flavipes); assay: Continuous exposure (56 days) to treated paper
Excerpt: as §1
Continuous exposure (56 days) to treated paper Rates: 0.78, 3.12, 12.5, 50, 200 ppm

[6] = system: Cat Flea (Ctenocephalides fells); assay: Continuous exposure of larvae to treated media, impact on subsequent adult emergence
Excerpt: Cat Flea (Ctenocephalides fells)
Continuous exposure of larvae to treated media, impact on subsequent adult emergence Rates: 0.1, 1.0, 10, 100, 1000 ppm

[7] = system: Red Imported Fire Ant (RIFA) (Solenopsis invicta); assay: Laboratory ant bait study, 3-4 day exposure to bait, brood reduction
Procedure: (§2) Laboratory ant bait studies were carried out with Red Imported Fire Ant (RIFA) (Solenopsis invicta) and Pharaoh Ant (Monomorium pharaonis). Chitin synthesis inhibitors, such as the compounds of the invention, control ants by killing the molting larvae and/or pupae and potentially preventing the hatching of eggs. Because adult workers are not affected, control is measured by effects on the brood. The studies involved 3-4 day exposure to bait. These limited exposure studies more accurately represent real world bait availability than continuous exposure.

[8] = system: Pharaoh Ant (Monomorium pharaonis); assay: as above; details: concentration tested 0.1%
Procedure: as §2

SMILES | LC50 (ppm) 21 days [1] | LC50 (ppm) 42 days [1] | LC50 (ppb) in water [2] | LT50 (days) for 10000 ppm treatment [3] | LC50 (ppm) 21 days [4] | LC50 (ppm) 42 days [4] | LT50 (days) for 200 ppm trt [5] | LC50 (ppm) 35 days [5] | LC50 (ppm) 56 days [5] | LC50 (ppm) [6] | LC90 (ppm) [6] | Time to Achieve 50% Brood Reduction ([7]; concentration tested 0.25%) | Time to Achieve 90% Brood Reduction ([7]; concentration tested 0.25%) | Time to Achieve 50% Brood Reduction ([7]; concentration tested 0.1%) | Time to Achieve 90% Brood Reduction ([7]; concentration tested 0.1%) | Time to Achieve 50% Brood Reduction ([8]; 3-4 day exposure to bait) | Percent brood reduction achieved at end of study ([8]; at 13 wks)
CCN(C(=O)Nc1cc(Cl)c(OC(F)(F)C(F)C(F)(F)F)c(Cl)c1F)C(=O)c1c(F)cccc1F (stereo not drawn) [Compound 3, N-[3,5-Dichloro-2-fluoro-4-(1,1,2,3,3,3-hexafluoropropoxy)phenyl]-N'-(2,6-difluorobenzoyl)-N'-ethyl urea] | 8.0 ppm | 1.5 ppm | > 100 ppb | – | – | – | – | – | – | – | – | – | – | – | – | – | –
O=C(NC(=O)c1c(F)cccc1F)Nc1cc(Cl)c(OC(F)(F)C(F)F)c(Cl)c1 [hexaflumuron, reference compound] | > 200 ppm | > 200 ppm | 68.1 ppb | 32.9 days | > 10,000 ppm | > 10,000 ppm | 33.8 days | > 200 ppm | 1.3 ppm | 65.7 ppm | 333.5 ppm | 4 wks | 10 wks | – | – | – | –
O=C(NC(=O)c1c(F)cccc1F)Nc1cc(Cl)c(OC(F)(F)C(F)C(F)(F)F)c(Cl)c1F (stereo not drawn) [Compound 1] | < 2.2 ppm | <0.78 ppm | 5.0 ppb | 23.7 days | < 22.2 ppm | < 9.1 ppm | 27.6 days | 31.2 ppm | < 0.78 ppm | 2.8 ppm | 22 ppm | – | – | 2 wks | 3 wks | 4 wks | 70%
CCN(C(=O)NC(=O)c1c(F)cccc1F)c1cc(Cl)c(OC(F)(F)C(F)C(F)(F)F)c(Cl)c1F (stereo not drawn) [Compound 2, N-[3,5-Dichloro-2-fluoro-4-(1,1,2,3,3,3-hexafluoropropoxy)phenyl]-N'-(2,6-difluorobenzoyl)-N-ethylurea] | 0.35 ppm | 0.26 ppm | – | – | 21.1 ppm | 12.8 ppm | – | < 0.78 ppm | < 0.78 ppm | 12.7 ppm | 18.6 ppm | – | – | – | – | – | –
